In patent publication US20190269792A1, “NANOPARTICLE COMPOSITIONS COMPRISING CD38 AND METHODS OF USE THEREOF” (Washington University, priority 2016, published 2019):

Columns and labels:
MM cells [1] = assay: Anti-CD38 chitosan NPs uptake mechanism (endosome co-localization, uptake inhibitors, 4° C.); type: cell-based, human; details: 30 min pre-incubation with inhibitor (cytochalasin D 1 μM, chlorpromazine 2 μM, nystatin 0.5 μg/ml, EGA 2.5 μM), then 2 h NPs
Description: Endocytosis is critical to the uptake of NPs in order to allow toxic effects in cells. MM cells were plated on glass bottom 8 well chambers and allowed to adhere overnight. CellLight Early Endosomes-GFP BacMam 2.0 reagent (targeting rab5) was added to result in a final concentration of 30 particles per cells and allowed to incubate with the cells for 18-24 h. Cells were washed twice with PBS and incubated with AF633 anti-CD38 chitosan NPs for 24 h. Cells were again washed twice with PBS and allowed to stay in phenol red free medium for imaging live under culture conditions of 37° C. and 5% CO2 at specified time points using FV1000 confocal microscope. To understand the process of internalization of anti-CD38 chitosan NPs, MM cells were pre-treated with inhibitors of macropinocytosis and phagocytosis (cytochalasin D), clathrin-mediated endocytosis (chlorpromazine), caveolae-mediated endocytosis (nystatin), or late endocytosis (EGA), prior to exposure to anti-CD38 chitosan NPs. […] MM cells (1×10^6 cell/ml) were pre-incubated at 37° C. with no inhibitor (Ctrl), cytochalasin D 1 μM, chlorpromazine 2 μM, nystatin 0.5 μg/ml, and EGA 2.5 μM or at 4° C. as control of the active uptake for 30 min. Cells were washed with PBS and incubated with AF633 anti-CD38 chitosan NPs for 2 h. Then, cells were washed and analyzed by flow cytometry for the fluorescence intensity of AF633.

MM cells [2] = assay: Effect of macropinocytosis and endocytosis inhibitors on survival of MM cells by MTT; type: cell-based; details: pre-incubation at 37° C. for 30 min; cytochalasin D 1 μM, chlorpromazine 2 μM, nystatin 0.5 μg/ml, EGA 2.5 μM
[3] = test system: MM cell lines (MM.1S, H929, and RPMI8826); assay: Cell viability of MM cells by MTT; type: cell-based, human; details: BTZ 5 nM or equivalent, 48 h
Description: MM cell lines (MM.1S, H929, and RPMI8826) and PB MNCs were cultured with vehicle (control), BTZ as a free drug (5 nM), empty NPs, non-targeted NPs loaded with BTZ equivalent amounts to 5 nM, and anti-CD38 NPs loaded with BTZ equivalent amounts to 5 nM for 48 h. Cell viability was assessed using MTT solution followed by absorbance reading at 570 nm using a spectrophotometer as previously described [19]. Briefly, the MTT solution was added to the cells 48 h after starting the treatment, and 2-4 h later the stop solution was added.

PB MNCs = assay: Cell viability of normal PB MNCs by MTT; type: cell-based, human; details: BTZ 5 nM or equivalent, 48 h
Description: MM cell lines (MM.1S, H929, and RPMI8826) and PB MNCs were cultured with vehicle (control), BTZ as a free drug (5 nM), empty NPs, non-targeted NPs loaded with BTZ equivalent amounts to 5 nM, and anti-CD38 NPs loaded with BTZ equivalent amounts to 5 nM for 48 h. Cell viability was assessed using MTT solution followed by absorbance reading at 570 nm using a spectrophotometer as previously described. Briefly, the MTT solution was added to the cells 48 h after starting the treatment, and 2-4 h later the stop solution was added.

H929 cells [4] = assay: Cell cycle by propidium iodide flow cytometry; type: cell-based, human; details: BTZ 5 nM or equivalent, 48 h
Description: Briefly, cells were washed, fixed with 70% ethanol, and washed again with PBS. RNA was degraded by incubation in RNAase for 30 minutes at 37° C., and the DNA was stained with PI solution for 10 minutes, then cells were analyzed by flow cytometry.

H929 cells [5] = assay: Apoptosis by Annexin V / PI flow cytometry; type: cell-based, human; details: BTZ 5 nM or equivalent, 48 h
Description: H929 cells (1×10^6 cell/ml) were cultured with vehicle (control), BTZ as a free drug (5 nM), empty chitosan NPs, non-targeted chitosan NPs loaded with BTZ equivalent amounts to 5 nM, and anti-CD38 chitosan NPs loaded with BTZ equivalent amounts to 5 nM for 48 h, and apoptosis was analyzed as previously described. Cells were washed and resuspended in 1× Annexin binding buffer, incubated with Annexin V for 15 minutes followed by staining with PI for extra 15 minutes, 1× binding buffer was added, and the cells were analyzed with flow cytometry.

proteasome = assay: Proteasome activity assay (AMC-tagged peptide substrate) in extracts of treated MM cells; type: cell-based, human; details: for effect of inhibition of macropinocytosis or endocytosis pathways on proteasome activity: free drug 5 nM with uptake inhibitors
Description: Cell extracts were prepared in NP-40 lysis buffer from control and treated cells (BTZ as a free drug (5 nM), empty chitosan NPs, non-targeted chitosan NPs loaded with BTZ equivalent amounts to 5 nM, and anti-CD38 NPs loaded with BTZ equivalent amounts to 5 nM) retrieved after 2 h treatment with BTZ. Proteasome activity was determined using the AMC-tagged peptide substrate in a Proteasome Activity Assay Kit (abcam, Cambridge, Mass., USA) according to the manufacturer's protocol. Fluorescence was determined in a SpectraMax i3 Multi-Mode Detection Platform (Molecular Devices, Sunnyvale, Calif., USA) and proteasome activity was expressed as the amount of proteasome which generates 1.0 nmol of AMC per minute at 37° C.
Proteasome activity inhibition was also measured in combination with inhibitors of macropinocytosis and phagocytosis (cytochalasin D), clathrin-mediated endocytosis (chlorpromazine), caveolae-mediated endocytosis (nystatin), or late endocytosis (EGA), prior to exposure to anti-CD38 chitosan NPs loaded with BTZ equivalent amounts to 5 nM. MM cells were pre-incubated at 37° C. with no inhibitor (Ctrl), cytochalasin D 1 μM, chlorpromazine 2 μM, nystatin 0.5 μg/ml, and EGA 2.5 μM for 30 min. Cells were washed with PBS and incubated with anti-CD38 chitosan NPs loaded with BTZ equivalent amounts to 5 nM, then proteasome Activity Assay Kit was followed as in the previous experiment.

MM.1S cells = assay: Boron cellular accumulation by ICP-OES; type: cell-based, human; details: 100 nM, 1.5 h
Description: MM.1S cells (40×10^6 cell/ml) were cultured with vehicle (control), BTZ as a free drug (100 nM), and anti-CD38 chitosan NPs loaded with BTZ equivalent amounts to 100 nM for 1.5 h. After the treatment the cells were spun down, washed, and cell pellet was digested in nitric acid. After dilution with deionized water, samples were microwave digested and then analyzed by ICP-OES for boron content.

[6] = test system: MM.1S cells co-culture with MM-derived MSP-1 stromal cell line; assay: Cell adhesion-mediated drug resistance, co-culture with MSP-1 stroma; type: cell-based, human; details: BTZ 5 nM or equivalent, 48 h
Description: In addition, cell proliferation assay of MM.1S cells co-culture with or without MM-derived MSP-1 stromal cell line with vehicle (control), BTZ as a free drug (5 nM), empty chitosan NPs, non-targeted chitosan NPs loaded with BTZ equivalent amounts to 5 nM, and anti-CD38 chitosan NPs loaded with BTZ equivalent amounts to 5 nM for 48 h was analyzed.

[7] = test system: MM cells cultured in normoxic (21% O2) or hypoxic (1% O2) conditions; assay: Hypoxia-mediated drug resistance; type: cell-based, human; details: BTZ 5 nM or equivalent, 48 h
Description: Furthermore, the effect of vehicle (control), BTZ as a free drug (5 nM), empty chitosan NPs, non-targeted chitosan NPs loaded with BTZ equivalent amounts to 5 nM, and anti-CD38 chitosan NPs loaded with BTZ equivalent amounts to 5 nM on proliferation of MM cells cultured in normoxic (21% O2) or hypoxic (1% O2) conditions for 48 h was measured.

MM.1S in 3DTEBM cultures = assay: Survival of MM cells in 3D tissue engineered bone marrow (3DTEBM); type: cell-based, human; details: BTZ 10 nM or equivalent, 48 h
Description: MM.1S (pre-labeled with Invitrogen cell tracers DiO (10 μg/ml) for 1 h) were cultured in relevant three-dimensional tissue engineered bone marrow (3DTEBM) cultures through crosslinking of fibrinogen as previously described. The effect of vehicle (control), BTZ as a free drug (10 nM), empty chitosan NPs, non-targeted chitosan NPs loaded with BTZ equivalent amounts to 10 nM, and anti-CD38 chitosan NPs loaded with BTZ equivalent amounts to 10 nM for 48 h was analyzed by flow cytometry. Higher BTZ doses (10 nM) are used in the 3DTEBM based on the known drug resistance of the cells in 3DTEBM cultures. Cell proliferation assays were performed by digestion of 3DTEBM cultures with type I collagenase (25 mg/ml for 2-3 h at 37° C.), followed by flow cytometry analysis using MACSQuant Analyzer (Miltenyi Biotec), and the data was analyzed using FlowJo program v10 (Ashland, Oreg.). Moreover, 3DTEBM cultures treated with AF633 anti-CD38 chitosan NPs loaded with BTZ equivalent amounts to 10 nM were imaged to determine NPs distribution by confocal microscopy after 24 h incubation.

MM1s-GFP-Luc cells = assay: MM tumor progression and survival in vivo; parameters: species or system SCID mice; details: BTZ 1 mg/kg once a week
Description: (§1) MM1s-GFP-Luc cells were injected into forty female, 7-week old SCID mice i.v. at the concentration of 2×10^6 cells per mouse and tumor progression was evaluated using BLI. After 4 weeks, tumor bearing mice were randomized into 4 groups of 10 animals each and treated with: (i) vehicle, (ii) BTZ as a free drug (1 mg/kg once a week), (iii) non-targeted NPs loaded with BTZ equivalent amounts to 1 mg/kg (once a week), (iv) and anti-CD38 NPs loaded with BTZ equivalent amounts to 1 mg/kg (once a week). Tumor progression was followed in the 4 groups twice a week (for 5 weeks) by BLI; moreover the survival, weight, and general health of the animals was followed. In addition, 3 mice were taken from each group 3 weeks after the beginning of the treatment, and specimens of the BM, blood smear, spleen, liver, kidney, brain, spinal-cord and intestine were fixed and pathologically evaluated for treatment efficacy and histological tissue damage.

[8] = Side effects in vivo (weight loss, hair loss, histological tissue damage); parameters: species or system SCID mice; details: BTZ 1 mg/kg once a week
Description: as §1

For `Cc1cccc(C)c1NC(=O)N/N=C/c1ccc(Br)cc1` [EGA], the “decrease of the uptake of the anti-CD38 NPs” value (from here on “decrease”) (MM cells [1]) was “about 25%” and the “effect on cell survival” value (MM cells [2]) was “no effect on cell survival”.

For `CN(C)CCCN1c2ccccc2Sc2ccc(Cl)cc21` [chlorpromazine], the “decrease” value (MM cells [1]) was “about 25%”.

With `C=C1[C@@H](C)[C@H]2[C@H](Cc3ccccc3)NC(=O)[C@]23[C@H](OC(C)=O)/C=C/[C@@](C)(O)C(=O)[C@@H](C)C/C=C/[C@H]3[C@@H]1O` [cytochalasin D] the “decrease” value (MM cells [1]) was “did not affect” and the “effect on cell survival” value (MM cells [2]) was “no effect on cell survival”.

For `CC(C)C[C@H](NC(=O)[C@H](Cc1ccccc1)NC(=O)c1cnccn1)B(O)O` [free BTZ, bortezomib], the “killing of MM cells” value [3] was 20%, the “effect on survival of PB MNCs” value (PB MNCs) was “no effect” and the “effect on cell cycle” value (H929 cells [4]) was “induced G0-G1 arrest”. The “early apoptosis, late apoptosis and cell death” value (H929 cells [5]) was “induced increase early apoptosis and no effect on late apoptosis and death”, the proteasome activity inhibition (proteasome; BTZ 5 nM or equivalent, 2 h, MM cells (Experiment 7)) was 50% and the “inhibition in the proteasome activity” value (proteasome; BTZ 5 nM or equivalent, without inhibition of the uptake routs (Experiment 8)) was “about 40%”. The “effect of inhibition of macropinocytosis or endocytosis pathways on proteasome activity” value (proteasome) was “led to any significant effect”, the “effect of inhibition of macropinocytosis or endocytosis pathways on proteasome activity” value (proteasome; listed as BTZ) was “did not induce any change” and the “accumulation of BTZ (boron content) in cells versus control” value (MM.1S cells) was “very similar to the levels measured in control”. For the same compound, the “cell adhesion-mediated drug resistance (stroma co-culture versus mono-culture)” value [6] was “induced resistance”, the “hypoxia-mediated drug resistance (1% O2 versus 21% O2)” value [7] was “induced resistance” and the “killing of MM cells in the 3DTEBM” value (MM.1S in 3DTEBM cultures) was 8%. For the same compound, the “day by which all the group died” value (MM1s-GFP-Luc cells) was ≤ 29 days, the “tumor size by BLI compared to vehicle treatment” value (MM1s-GFP-Luc cells; 5 weeks) was “efficacious in reducing tumor size” and the “hair loss compared to the vehicle-treated group” value [8] was “significant hair loss”.

With `C[C@@H]1[C@H](O)[C@@H](C)/C=C/C=C/CC/C=C/C=C/C=C/C=C/C(O[C@H]2O[C@H](C)[C@@H](O)[C@H](N)[C@@H]2O)CC2O[C@](O)(CC(O)C(O)CCC(O)CC(O)CC(O)CC(=O)O[C@H]1C)CC(O)C2C(=O)O` (stereo partly shown) [nystatin] the “decrease” value (MM cells [1]) was “about 25%” and the “effect on cell survival” value (MM cells [2]) was “no effect on cell survival”.
